Reference: patent US8003632B2, “Cholinesterase inhibitors for treating inflammation” (priority 2004, dated 2011)
Structures can show the parent of a compound that is named as a salt. Where two headings read alike, the source gives them in different places.

What was measured:
[1] = test system: murine model of lethal endotoxemia; assay type: in vivo, mice; details: for mice survived: 14 days after endotoxin, vehicle none survived
TNF = test: Serum TNF (ELISA) in endotoxemic mice; assay type: in vivo, BALB/c mice
Description: Male BALB/c mice were injected intraperitoneally with 6 mg/kg endotoxin (lipopolysaccharide, E. coli 0111:B4, Sigma, St. Louis, Mo.; 10 mg/ml in pyrogen-free saline), which had been sonicated for 30 min. Galantamine (CalBioChem, San Diego, Calif.) at doses of 0.1, 1, 2 or 4 mg/kg or vehicle control were injected intraperitoneally one hour before endotoxin administration in anesthetized animals. One and half hours after endotoxin exposure, blood was harvested for TNF measurement.
Blood was centrifuged at 5,000 rpm (1,500×g) for 15 min and the supernatants were collected for TNF determination. Serum and supernatants were used for TNF protein analysis by ELISA (R&D Systems Inc., Minneapolis, Minn.) according to the manufacturer's instructions.

[2] = test system: murine CLP model of sepsis; assay type: in vivo, mice
TNF-α [3] = test: Serum TNF-α in endotoxemic rats after intracerebroventricular administration; assay type: in vivo; details: ICV 1 hour before endotoxemia, doses tested 1-1000 ng/kg, dose of the result not stated
Description: Endotoxemia was induced in rats via intraperitoneal (IP) injection of endotoxin (lipopolysaccharide, LPS; E. coli 0111:B4, Sigma; 10 mg/ml in PBS) (10-30 mg/kg, IP). Rats were anesthetized with ketamine (10%) in xylazine and placed in a stereotatic head frame (Stoelting Co.). The incisor bar was adjusted until the plane defined by the lambda and bregma was parallel to the base plate. The needle of a Hamilton syringe ([…]) was stereotactically guided into lateral ventricle (0.8 mm posterior to bregma, 1.5 mm lateral to midline, 3.5 mm below the dura). Galantamine at 1, 10, 100 and 1000 ng/kg was dissolved in sterile endotoxin-free saline and administered over 2 min. Vehicle control (saline) was also administered over 2 min. The location of intracerebroventricular (i.c.v.) injections was confirmed by histological examination of the brain after the experiment. TNF-α was measured as described above.

TNF-α [4] = test: Serum TNF-α (ELISA) in septic mice after cecal ligation and puncture; assay type: in vivo, BALB/c mice; details: for decrease of serum level TNF-α compared to vehicle control: blood 6 h after treatment
Description: (§1) Cecal Ligation and Puncture (CLP) was performed as described in Fink and Heard, J. of Surg. Res. 49:186-196 (1990), Wichman et al., Crit. Care Med. 26:2078-2086 (1998) and Remick et al., Shock 4:89-95 (1995). Briefly, BALB/c mice were anesthetized with 100 mg/kg ketamine (Fort Dodge, Fort Dodge, Iowa) and 10 mg/kg of xylazine (Bohringer Ingelheim, St. Joseph, Mo.) intramuscularly. A midline incision was performed, and the cecum was isolated. A 6-0 prolene suture ligature was placed at a level 5.0 mm from the cecal tip away from the ileocecal valve.
The ligated cecal stump was then punctured once with a 22-gauge needle, and 2mm stool extruded. The cecum was then placed back into its normal intra-abdominal position. The abdomen was then closed with a running suture of 6-0 prolene in two layers, peritoneum and fascia separately to prevent leakage of fluid. All animals were resuscitated with a normal saline solution administered sub-cutaneously at 20 ml/kg of body weight. Each mouse received a subcutaneous injection of imipenem (0.5 mg/mouse) (Primaxin, Merck & Co., Inc., West Point, Pa.) 30 minutes after the surgery. Animals were then allowed to recuperate.
Twenty-four hours after surgery, mice were intraperitoneally administered either 0.01 mg/kg or 0.1 mg/kg Galantamine Hydrobromide (CalBioChem, San Diego, Calif.) or vehicle control (saline). Galantamine was prepared in saline to a final concentration of 10 mg/ml. Mice were euthanized 6 hours after treatment with Galantamine or vehicle control (30 hours after surgery) and blood was collected by cardiac puncture for TNF-α measurement. TNF-α was measured by ELISA (mouse ELISA kit from R&D Systems Inc., Minneapolis, Minn.).
Cecal ligation and puncture were performed as described above. Randomly selected mice were treated intraperitoneally with vehicle (saline, 200 ul) or tacrine (2.5 μg/kg or 0.25 μg/kg) twice daily for 3 days, starting 24 hours after surgery. Mice were monitored for survival twice daily for three weeks. […] TNF was measured by ELISA as discussed above. HMGB1 was measured in sera by Western blot as discussed above.

HMGB1 = test: Serum HMGB1 (western blot) in septic mice after cecal ligation and puncture; assay type: in vivo
Description: as §1
The ligated cecal stump was then punctured once with a 22-gauge needle, and 2mm stool extruded. The cecum was then placed back into its normal intra-abdominal position. The abdomen was then closed with a running suture of 6-0 prolene in two layers, peritoneum and fascia separately to prevent leakage of fluid. […]
Cecal Ligation and Puncture (CLP) was performed as described above in Example 1. […] HMGB1 was measured by western blot using anti-HMG1 polyclonal antisera (U.S. Pat. No. 6,303,321) and standard methods. Band densities were measured using a Bio-Rad Imaging densitometer. […]
Cecal ligation and puncture were performed as described above. […] Mice were monitored for survival twice daily for three weeks. […] TNF was measured by ELISA as discussed above. HMGB1 was measured in sera by Western blot as discussed above.

[5] = 2.5 μg/kg i.p. 24 h after CLP, blood 6 h later

SMILES: COc1ccc2c3c1O[C@H]1C[C@@H](O)C=C[C@@]31CCN(C)C2 [Galantamine]
- mice survived ([1]; 4 mg/kg i.p. six hours before endotoxin): about 75%
- increase in survival ([1]; day 14, 1 mg/kg i.p. 1 h before endotoxin): about 15%
- increase in survival ([1]; day 14, 2 mg/kg i.p. 1 h before endotoxin): ~25%
- increase in survival compared with vehicle control ([1]; day 14, 4 mg/kg i.p. 1 h before endotoxin): about 90%
- inhibition of serum TNF in endotoxemic mice (TNF; 2 mg/kg i.p. 1 h before endotoxin): nearly two-fold inhibition
- inhibition of serum TNF in endotoxemic mice (TNF; 4 mg/kg i.p. 1 h before endotoxin): nearly three-fold inhibition
- effect on serum TNF in endotoxemic mice (TNF; 1, 2 and 4 mg/kg i.p. 1 h before endotoxin, blood 1.5 h after endotoxin): significantly inhibited serum TNF
- survival from lethal sepsis ([2]; 10 μg/kg i.p. twice daily, 3 days, from 24 h after CLP, monitored 3 weeks, vehicle 37%): 58%
- survival from lethal sepsis ([2]; 100 μg/kg i.p. twice daily, 3 days, from 24 h after CLP, monitored 3 weeks, vehicle 37%, p<0.05): 90%
- mice survived ([2]; Day 6, 10 ug/kg i.p. twice a day for 3 days from 24 h after CLP, vehicle 37%): 58%
- mice survived ([2]; Day 6, 100 ug/kg i.p. twice a day for 3 days from 24 h after CLP, vehicle 37%): 90%
- decrease of serum level TNF-α compared to vehicle control (TNF-α [3]): approximately 94%
- decrease of serum level TNF-α compared to vehicle control (TNF-α [4]; 0.01 mg/kg i.p. 24 h after CLP): approximately 50%
- decrease of serum level TNF-α compared to vehicle control (TNF-α [4]; 0.1 mg/kg i.p. 24 h after CLP): ~80%
- decrease of serum level of HMGB1 compared to vehicle control (HMGB1; 0.1 mg/kg i.p. 24 h after CLP, blood 6 h after treatment): about 50%

SMILES: CN(C)C(=O)Oc1cccc([N+](C)(C)C)c1 [Neostigmine, Neostigmine methyl sulfate]
- mice survived ([1]; 0.1 mg/kg i.p. 30 minutes before endotoxin): about 50%

SMILES: Nc1c2c(nc3ccccc13)CCCC2 [Tacrine]
- effect on survival in mice with polymicrobial sepsis ([2]; mouse, in vivo, ip): significantly improved survival
- mice survived ([2]; mouse, in vivo, ip): all
- survival from lethal sepsis ([2]; mouse, in vivo, ip): 100%
- effect on serum TNF in septic mice (TNF-α [4]; [5]): significantly reduced
- effect on serum HMGB1 in septic mice (HMGB1; [5]): significantly reduced
